Data taken from the kinase profiling compilation of Christmann-Franck et al. (2016).

What was measured:
Assay in all cases: radiometric filter-binding kinase assay, Kinase HotSpot
Settings in all cases: compound 0.5 µM; ATP 10 µM
CAMK2A (human) = CAMK2A (human) (UniProt Q9UQM7)
CAMK2G (human) = CAMK2G (human) (UniProt Q13555)
CDK2 CCNE1 (human) = CDK2 CCNE1 (human) (UniProt P24941+P24864)
CDK6 CCND3 (human) = CDK6 CCND3 (human) (UniProt P30281+Q00534)
CSF1R (human) = CSF1R (human) (UniProt P07333)
CSNK1D (human) = CSNK1D (human) (UniProt P48730)
DYRK4 (human) = DYRK4 (human) (UniProt Q9NR20)
EPHA5 (human) = EPHA5 (human) (UniProt P54756)
Chain of EPHA5 (human) (P54756 whole entry, looked up): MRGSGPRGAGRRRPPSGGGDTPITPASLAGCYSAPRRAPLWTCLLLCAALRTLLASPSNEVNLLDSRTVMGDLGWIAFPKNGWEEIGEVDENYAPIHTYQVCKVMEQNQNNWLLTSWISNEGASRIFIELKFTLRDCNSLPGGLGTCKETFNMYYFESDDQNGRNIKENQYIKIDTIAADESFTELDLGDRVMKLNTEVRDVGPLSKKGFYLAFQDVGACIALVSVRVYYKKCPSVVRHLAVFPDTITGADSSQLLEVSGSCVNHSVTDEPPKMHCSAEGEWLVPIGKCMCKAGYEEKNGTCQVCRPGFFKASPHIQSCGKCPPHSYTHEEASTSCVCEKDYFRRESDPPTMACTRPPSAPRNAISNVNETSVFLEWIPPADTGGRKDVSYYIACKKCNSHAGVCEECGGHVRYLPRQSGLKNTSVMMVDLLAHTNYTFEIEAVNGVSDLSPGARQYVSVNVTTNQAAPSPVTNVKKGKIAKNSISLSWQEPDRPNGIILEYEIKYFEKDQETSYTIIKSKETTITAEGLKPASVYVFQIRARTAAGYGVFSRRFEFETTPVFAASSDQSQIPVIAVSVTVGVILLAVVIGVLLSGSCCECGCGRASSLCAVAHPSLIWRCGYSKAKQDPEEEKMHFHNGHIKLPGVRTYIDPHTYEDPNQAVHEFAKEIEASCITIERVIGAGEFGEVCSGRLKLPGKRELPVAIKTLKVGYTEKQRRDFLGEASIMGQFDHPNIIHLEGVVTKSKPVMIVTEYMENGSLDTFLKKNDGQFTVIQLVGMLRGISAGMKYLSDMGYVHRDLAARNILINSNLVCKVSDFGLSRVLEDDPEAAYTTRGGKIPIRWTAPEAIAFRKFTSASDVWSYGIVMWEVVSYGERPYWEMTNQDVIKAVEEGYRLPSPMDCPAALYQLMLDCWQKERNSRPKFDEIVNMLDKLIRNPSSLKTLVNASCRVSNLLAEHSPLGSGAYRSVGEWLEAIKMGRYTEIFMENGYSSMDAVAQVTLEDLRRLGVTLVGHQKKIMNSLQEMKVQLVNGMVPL

FGFR1 (human) = FGFR1 (human) (UniProt P11362)
GRK6 (human) = GRK6 (human) (UniProt P43250)
INSRR (human) = INSRR (human) (UniProt P14616)
JAK3 JH1 JH2 (human) = JAK3 JH1 JH2 (human) (UniProt P52333)
KDR (human) = KDR (human) (UniProt P35968)
MAP3K14 (human) = MAP3K14 (human) (UniProt Q99558)
MAP3K2 (human) = MAP3K2 (human) (UniProt Q9Y2U5)
MAPK10 (human) = MAPK10 (human) (UniProt P53779)
MAPK11 (human) = MAPK11 (human) (UniProt Q15759)
MAPK14 (human) = MAPK14 (human) (UniProt Q16539)
Chain of MAPK14 (human) (Q16539 whole entry, looked up): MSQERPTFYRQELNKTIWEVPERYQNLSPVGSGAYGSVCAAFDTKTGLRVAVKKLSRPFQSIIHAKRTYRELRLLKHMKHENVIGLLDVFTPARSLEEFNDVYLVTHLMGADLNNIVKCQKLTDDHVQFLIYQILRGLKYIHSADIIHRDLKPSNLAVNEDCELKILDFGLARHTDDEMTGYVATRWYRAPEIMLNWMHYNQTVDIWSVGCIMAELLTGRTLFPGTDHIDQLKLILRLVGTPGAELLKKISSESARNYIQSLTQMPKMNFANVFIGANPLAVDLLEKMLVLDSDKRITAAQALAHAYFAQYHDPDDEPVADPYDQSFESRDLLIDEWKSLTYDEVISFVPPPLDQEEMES

MARK3 (human) = MARK3 (human) (UniProt P27448)
MLTK (human) = MLTK (human) (UniProt Q9NYL2)
MYLK (human) = MYLK (human) (UniProt Q15746)
Chain of MYLK (human) (Q15746 whole entry, looked up): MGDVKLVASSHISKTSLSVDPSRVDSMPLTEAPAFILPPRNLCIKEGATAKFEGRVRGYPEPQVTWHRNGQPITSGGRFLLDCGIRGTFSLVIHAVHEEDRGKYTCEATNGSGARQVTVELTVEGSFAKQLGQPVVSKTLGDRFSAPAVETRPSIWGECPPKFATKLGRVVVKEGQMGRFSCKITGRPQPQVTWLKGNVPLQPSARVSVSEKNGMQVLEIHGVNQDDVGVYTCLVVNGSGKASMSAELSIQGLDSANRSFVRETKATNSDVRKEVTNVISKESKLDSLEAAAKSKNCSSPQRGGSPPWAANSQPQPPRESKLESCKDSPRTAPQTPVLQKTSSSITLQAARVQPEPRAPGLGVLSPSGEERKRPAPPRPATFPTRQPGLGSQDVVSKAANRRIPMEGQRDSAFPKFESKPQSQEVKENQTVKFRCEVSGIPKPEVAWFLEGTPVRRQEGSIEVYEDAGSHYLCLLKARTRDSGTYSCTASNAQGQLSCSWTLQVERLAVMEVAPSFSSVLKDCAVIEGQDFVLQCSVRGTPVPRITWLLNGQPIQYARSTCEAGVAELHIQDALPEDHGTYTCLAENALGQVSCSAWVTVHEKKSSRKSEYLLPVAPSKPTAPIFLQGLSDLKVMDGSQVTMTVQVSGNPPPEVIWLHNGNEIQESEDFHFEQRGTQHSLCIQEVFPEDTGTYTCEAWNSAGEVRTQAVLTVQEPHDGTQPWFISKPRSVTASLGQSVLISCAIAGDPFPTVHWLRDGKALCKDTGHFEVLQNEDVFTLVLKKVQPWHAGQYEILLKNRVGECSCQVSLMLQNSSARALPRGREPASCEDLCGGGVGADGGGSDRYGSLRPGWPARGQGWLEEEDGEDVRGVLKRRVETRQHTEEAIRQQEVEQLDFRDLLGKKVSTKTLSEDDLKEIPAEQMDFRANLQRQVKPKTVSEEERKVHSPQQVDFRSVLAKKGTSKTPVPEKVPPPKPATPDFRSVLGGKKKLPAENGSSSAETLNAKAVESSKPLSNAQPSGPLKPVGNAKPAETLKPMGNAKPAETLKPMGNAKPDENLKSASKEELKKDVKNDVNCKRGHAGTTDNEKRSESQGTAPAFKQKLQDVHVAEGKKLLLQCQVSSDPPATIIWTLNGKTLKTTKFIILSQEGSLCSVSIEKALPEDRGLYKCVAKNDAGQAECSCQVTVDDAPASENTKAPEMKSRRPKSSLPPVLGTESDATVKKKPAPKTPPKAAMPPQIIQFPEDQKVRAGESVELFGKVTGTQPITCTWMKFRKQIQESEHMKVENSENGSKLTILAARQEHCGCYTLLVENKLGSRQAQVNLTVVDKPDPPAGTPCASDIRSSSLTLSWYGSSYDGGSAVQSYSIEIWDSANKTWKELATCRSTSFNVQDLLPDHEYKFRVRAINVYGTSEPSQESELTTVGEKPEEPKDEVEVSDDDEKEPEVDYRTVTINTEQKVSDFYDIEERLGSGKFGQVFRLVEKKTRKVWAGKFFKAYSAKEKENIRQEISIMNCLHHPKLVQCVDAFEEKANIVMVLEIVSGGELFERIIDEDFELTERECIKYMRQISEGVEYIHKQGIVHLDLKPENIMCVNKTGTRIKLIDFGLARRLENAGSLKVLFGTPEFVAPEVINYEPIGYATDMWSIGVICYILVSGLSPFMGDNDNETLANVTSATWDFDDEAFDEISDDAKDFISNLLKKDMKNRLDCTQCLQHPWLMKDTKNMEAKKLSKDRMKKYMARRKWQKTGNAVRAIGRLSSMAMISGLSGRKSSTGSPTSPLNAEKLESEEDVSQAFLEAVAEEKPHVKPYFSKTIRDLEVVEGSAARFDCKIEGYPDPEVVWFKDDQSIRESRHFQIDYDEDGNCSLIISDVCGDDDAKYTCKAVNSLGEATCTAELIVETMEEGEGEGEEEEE

NEK11 (human) = NEK11 (human) (UniProt Q8NG66)
NEK3 (human) = NEK3 (human) (UniProt P51956)
NEK9 (human) = NEK9 (human) (UniProt Q8TD19)
PASK (human) = PASK (human) (UniProt Q96RG2)
PDPK1 (human) = PDPK1 (human) (UniProt O15530)
PIM1 (human) = PIM1 (human) (UniProt P11309)
PRKACA (human) = PRKACA (human) (UniProt P17612)
PRKCA (human) = PRKCA (human) (UniProt P17252)
PRKD1 (human) = PRKD1 (human) (UniProt Q15139)
PTK2B (human) = PTK2B (human) (UniProt Q14289)
ROCK2 (human) = ROCK2 (human) (UniProt O75116)
RPS6KA5 KD2 (human) = RPS6KA5 KD2 (human) (UniProt O75582)
RPS6KA6 KD1 KD2 (human) = RPS6KA6 KD1 KD2 (human) (UniProt Q9UK32)
SGK2 (human) = SGK2 (human) (UniProt Q9HBY8)
SGK3 (human) = SGK3 (human) (UniProt Q96BR1)
STK11 (human) = STK11 (human) (UniProt Q15831)
STK16 (human) = STK16 (human) (UniProt O75716)
TEC (human) = TEC (human) (UniProt P42680)
ULK1 (human) = ULK1 (human) (UniProt O75385)
WNK3 (human) = WNK3 (human) (UniProt Q9BYP7)
HIPK1 (human) = HIPK1 (human) (UniProt Q86Z02)

Chain of CDK2 CCNE1 (human) (P24864 whole entry, looked up, other chains not shown): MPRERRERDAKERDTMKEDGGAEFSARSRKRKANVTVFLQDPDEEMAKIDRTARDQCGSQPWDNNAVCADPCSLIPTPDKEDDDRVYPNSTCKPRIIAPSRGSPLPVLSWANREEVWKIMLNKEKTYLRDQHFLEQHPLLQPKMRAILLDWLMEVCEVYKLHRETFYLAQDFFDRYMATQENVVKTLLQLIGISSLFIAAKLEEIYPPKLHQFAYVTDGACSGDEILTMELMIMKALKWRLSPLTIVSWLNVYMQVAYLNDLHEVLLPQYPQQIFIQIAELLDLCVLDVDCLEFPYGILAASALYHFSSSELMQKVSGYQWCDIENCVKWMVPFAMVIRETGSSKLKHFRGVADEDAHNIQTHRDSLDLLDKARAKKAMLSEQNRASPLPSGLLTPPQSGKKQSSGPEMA
Chain of CDK6 CCND3 (human) (P30281 whole entry, looked up): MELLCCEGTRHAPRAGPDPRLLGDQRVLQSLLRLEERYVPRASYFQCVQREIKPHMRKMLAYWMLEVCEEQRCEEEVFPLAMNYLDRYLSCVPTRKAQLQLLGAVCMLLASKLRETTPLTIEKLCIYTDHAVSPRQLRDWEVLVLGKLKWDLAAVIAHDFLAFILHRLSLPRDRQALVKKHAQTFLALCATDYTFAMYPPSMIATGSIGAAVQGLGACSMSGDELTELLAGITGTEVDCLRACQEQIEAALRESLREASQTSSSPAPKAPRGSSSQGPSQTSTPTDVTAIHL
Chain of CDK6 CCND3 (human) (Q00534 whole entry, looked up): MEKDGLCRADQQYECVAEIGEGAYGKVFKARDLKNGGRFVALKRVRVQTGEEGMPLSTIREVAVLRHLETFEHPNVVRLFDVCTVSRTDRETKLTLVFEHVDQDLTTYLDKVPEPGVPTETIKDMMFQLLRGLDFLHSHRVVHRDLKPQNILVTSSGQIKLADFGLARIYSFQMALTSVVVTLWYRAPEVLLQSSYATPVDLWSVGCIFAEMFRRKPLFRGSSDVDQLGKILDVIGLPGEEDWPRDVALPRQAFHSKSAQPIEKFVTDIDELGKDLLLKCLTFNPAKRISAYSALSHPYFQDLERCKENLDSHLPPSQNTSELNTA

O=c1c(-c2ccc(F)cc2)c(-c2ccncc2)[nH]n1-c1ccc(Cl)cc1
residual activity (CAMK2A (human)): 86.9% | residual activity (CAMK2G (human)): 109% | residual activity (CDK2 CCNE1 (human)): 89.1% | residual activity (CDK6 CCND3 (human)): 93.7% | residual activity (CSF1R (human)): 102% | residual activity (CSNK1D (human)): 26.7% | residual activity (DYRK4 (human)): 81.5% | residual activity (EPHA5 (human)): 106% | residual activity (FGFR1 (human)): 93.7% | residual activity (GRK6 (human)): 90.1% | residual activity (INSRR (human)): 95.4% | residual activity (JAK3 JH1 JH2 (human)): 106% | residual activity (KDR (human)): 90.6% | residual activity (MAP3K14 (human)): 102% | residual activity (MAP3K2 (human)): 98.9% | residual activity (MAPK10 (human)): 97.1% | residual activity (MAPK11 (human)): 55.9% | residual activity (MAPK14 (human)): 11.2% | residual activity (MARK3 (human)): 87.2% | residual activity (MLTK (human)): 91.2% | residual activity (MYLK (human)): 101% | residual activity (NEK11 (human)): 104% | residual activity (NEK3 (human)): 100% | residual activity (NEK9 (human)): 107% | residual activity (PASK (human)): 93.6% | residual activity (PDPK1 (human)): 104% | residual activity (PIM1 (human)): 101% | residual activity (PRKACA (human)): 90.7% | residual activity (PRKCA (human)): 100% | residual activity (PRKD1 (human)): 84.7% | residual activity (PTK2B (human)): 91.7% | residual activity (ROCK2 (human)): 89.5% | residual activity (RPS6KA5 KD2 (human)): 93.5% | residual activity (RPS6KA6 KD1 KD2 (human)): 90.3% | residual activity (SGK2 (human)): 94.3% | residual activity (SGK3 (human)): 100% | residual activity (STK11 (human)): 98.8% | residual activity (STK16 (human)): 100% | residual activity (TEC (human)): 112% | residual activity (ULK1 (human)): 103% | residual activity (WNK3 (human)): 93.6%

N#C/C(=C1/Nc2ccccc2S1)c1ccnc(NCCc2cccnc2)n1
residual activity (CAMK2A (human)): 105% | residual activity (CAMK2G (human)): 111% | residual activity (CDK2 CCNE1 (human)): 82.7% | residual activity (CDK6 CCND3 (human)): 94.6% | residual activity (CSF1R (human)): 99.2% | residual activity (CSNK1D (human)): 65% | residual activity (DYRK4 (human)): 65% | residual activity (EPHA5 (human)): 113% | residual activity (FGFR1 (human)): 99% | residual activity (GRK6 (human)): 87.6% | residual activity (HIPK1 (human)): 109% | residual activity (INSRR (human)): 92.2% | residual activity (JAK3 JH1 JH2 (human)): 106% | residual activity (KDR (human)): 99.7% | residual activity (MAP3K14 (human)): 109% | residual activity (MAP3K2 (human)): 98.1% | residual activity (MAPK11 (human)): 101% | residual activity (MAPK14 (human)): 89.1% | residual activity (MARK3 (human)): 94.9% | residual activity (MLTK (human)): 90.4% | residual activity (MYLK (human)): 97.9% | residual activity (NEK11 (human)): 118% | residual activity (NEK3 (human)): 87.9% | residual activity (NEK9 (human)): 94.4% | residual activity (PASK (human)): 64.1% | residual activity (PDPK1 (human)): 95.9% | residual activity (PIM1 (human)): 11.6% | residual activity (PRKACA (human)): 103% | residual activity (PRKCA (human)): 94.3% | residual activity (PRKD1 (human)): 82.4% | residual activity (PTK2B (human)): 98.7% | residual activity (ROCK2 (human)): 83.6% | residual activity (RPS6KA5 KD2 (human)): 98.9% | residual activity (RPS6KA6 KD1 KD2 (human)): 87% | residual activity (SGK2 (human)): 100% | residual activity (SGK3 (human)): 107% | residual activity (STK11 (human)): 79.4% | residual activity (STK16 (human)): 79.2% | residual activity (TEC (human)): 104% | residual activity (ULK1 (human)): 98.5% | residual activity (WNK3 (human)): 81.3%

N#CCCc1ccc2c(c1)-c1[nH]c3ccc([N+](=O)[O-])cc3c1CC(=O)N2
residual activity (CAMK2A (human)): 69.1% | residual activity (CAMK2G (human)): 66% | residual activity (CDK2 CCNE1 (human)): 13.4% | residual activity (CDK6 CCND3 (human)): 26% | residual activity (CSF1R (human)): 43.4% | residual activity (CSNK1D (human)): 97.4% | residual activity (DYRK4 (human)): 100% | residual activity (EPHA5 (human)): 88.5% | residual activity (FGFR1 (human)): 91.9% | residual activity (GRK6 (human)): 91.5% | residual activity (HIPK1 (human)): 97.9% | residual activity (INSRR (human)): 99.2% | residual activity (JAK3 JH1 JH2 (human)): 101% | residual activity (KDR (human)): 75.5% | residual activity (MAP3K14 (human)): 161% | residual activity (MAP3K2 (human)): 61.5% | residual activity (MAPK10 (human)): 93.3% | residual activity (MAPK11 (human)): 101% | residual activity (MAPK14 (human)): 91.8% | residual activity (MARK3 (human)): 67.3% | residual activity (MLTK (human)): 88.6% | residual activity (MYLK (human)): 95.2% | residual activity (NEK11 (human)): 101% | residual activity (NEK3 (human)): 104% | residual activity (NEK9 (human)): 103% | residual activity (PASK (human)): 96.9% | residual activity (PDPK1 (human)): 79.8% | residual activity (PIM1 (human)): 93.6% | residual activity (PRKACA (human)): 87.6% | residual activity (PRKCA (human)): 80.9% | residual activity (PRKD1 (human)): 87.5% | residual activity (PTK2B (human)): 62.9% | residual activity (ROCK2 (human)): 28.6% | residual activity (RPS6KA5 KD2 (human)): 94.2% | residual activity (RPS6KA6 KD1 KD2 (human)): 13.4% | residual activity (SGK2 (human)): 114% | residual activity (SGK3 (human)): 99.2% | residual activity (STK16 (human)): 87% | residual activity (TEC (human)): 120% | residual activity (ULK1 (human)): 94.2% | residual activity (WNK3 (human)): 96.5%
